Consider twelve compounds from patent publication US12083101B2, “Biaryl derivatives as YAP/TAZ-TEAD protein-protein interaction inhibitors” (Novartis AG, priority 2020, dated 2024).

Structures are written as SMILES. Like-named read-outs stand apart in the source and are kept apart here.

For experiment [1], the system named is NCI-H2052 Tet-On shYAP_2371 pLenti6 MCAT_Luc cells. Nature of the experiment: Proliferation assay (resazurin), NCI-H2052. Type of experiment: cell-based. As to conditions: 72 hours incubation. Here is the method: (§1) This cell line was also transduced with a Tet-pLKO-puro-based construct mediating tetracycline-inducible expression of a short-hairpin directed against the 3′UTR of the YAP1 mRNA (5′-[…]-3′).
(§2) Stock solutions of compounds were prepared at a concentration of 10 mM in DMSO and stored at 4° C. Where necessary to afford a full dose-response curve, the stock solutions were pre-diluted in DMSO to 1'000-fold the desired reduced start concentration. On the day after cell seeding, eleven 2-fold serial dilutions of each compound were dispensed directly into the cell assay plates using a HP 300D non-contact Digital Dispenser (TECAN, Mannedorf, Switzerland). The final concentration of DMSO was normalized to 0.1% in all wells.
(§3) The functional effect of compounds on cell proliferation was assessed using NCI-H2052 Tet-On shYAP_2371 pLenti6 MCAT_Luc and MKN-45/Ubc-luc cells by quantifying the reducing capacity of live cells using the redox indicator dye resazurin. […] For data analysis, the assay background value determined in wells containing medium, but no cells, was subtracted from all data points. […] The effect of a particular test compound concentration on cell proliferation/viability was expressed as percentage of day 0-corrected fluorescence reading obtained for cells treated with vehicle only (DMSO, final concentration 0.1%), which was set as 100%, whereas the fluorescence reading for wells containing medium only, but no cells, was set as −100%. Compound concentrations leading to half-maximal growth inhibition (GI50) were determined using standard four parameter curve fitting.

The test system of experiment [2] is NCI-H2052 Tet-On shYAP_2371 pLenti6 MCAT_Luc cells (YAP-dependent transcription). Nature of the experiment: YAP reporter gene activity assay (MCAT-luciferase), NCI-H2052. Type of experiment: cell-based. To be noted: 24 hours incubation, BrightGlo luminescence. How it is done: as §1, §2
The ability of compounds to inhibit YAP-dependent transcription was assessed in NCI-H2052 Tet-On shYAP_2371 pLenti6 MCAT_Luc cells, while specificity (lack of unspecific inhibition of luciferase expression of activity) was assessed in MKN-45/Ubc-luc cells. […] Following incubation for 24 hours at 37° C., compound-mediated modulation of reporter-gene activity was quantified 5 min after addition of 20 μl BrightGlo (Promega, Cat #E2620), by measuring luminescence intensity on a multi-mode plate-reader (TECAN, Männedorf, Switzerland, Integration time 100 ms). For data analysis, the assay background value determined in wells containing medium, but no cells, was subtracted from all data points. Dose-dependent compound effects were expressed as % of vehicle-treated control (luminescence signal produced by cells receiving DMSO only) and IC50s calculated using a four-parametric fit model.
For orientation: Reporter assays use an easily measured gene product as a stand-in for the process of interest.

In experiment [3] the test system is MKN-45/Ubc-luc cells. The experiment is described as follows: Reporter gene specificity control (Ubc-luciferase), MKN-45.
The target in experiment [4] is Avi-humanTEAD4 217-434 / Cy5 labeled humanYAP 60-100 (Homo sapiens (Human), UniProt Q15561). The experiment is described as follows: TR-FRET YAP-TEAD4 in-vitro biochemical assay. It counts as binding. As to conditions: 1 nM Avi-humanTEAD4 217-434, 20 nM Cy5-humanYAP 60-100, 1 h room temperature. Background: TR-FRET usually uses a lanthanide donor and a delayed reading to cut background.
Sequence of Avi-humanTEAD4 217-434 / Cy5 labeled humanYAP 60-100 (Q15561 217-434): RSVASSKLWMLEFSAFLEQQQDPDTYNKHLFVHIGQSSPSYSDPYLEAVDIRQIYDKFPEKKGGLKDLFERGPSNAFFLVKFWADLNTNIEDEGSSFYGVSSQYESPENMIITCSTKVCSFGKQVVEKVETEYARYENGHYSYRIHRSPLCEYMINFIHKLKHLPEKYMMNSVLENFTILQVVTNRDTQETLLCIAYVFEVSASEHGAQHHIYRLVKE

For experiment [5], the system named is MKN-45/Ubc-luc cells. The experiment is described as follows: Proliferation assay (resazurin), MKN-45. It counts as cell-based. As to conditions: 72 hours incubation. Here is the method: As a specificity control, MKN-45 cells were stably transduced with a Ubc-Luc reporter construct, in which constitutive expression of firefly luciferase is driven by the promoter of the ubiquitin C housekeeping gene.
as §2, §3
Background: The colour change of resazurin is a common sign of viable cells or microbes.

[6] abbreviates: Homo sapiens, MKN-45, 24 h, read-out: Reporter gene assay MKN-45 IC50 [μM], MKN-45/Ubc-luc cells (YAP deleted, specificity control), 24 hours incubation.

As a reminder, the GI50 is the concentration that inhibits growth by half. A higher GI50 goes with less potent growth inhibition. Regarding `NC[C@@]1(c2ccccc2)Cc2c(cc(F)c(Cl)c2-c2c(C(N)=O)cnc(OCCO)c2F)O1` (atropisomer, axis not shown) [Example 43, 4-((2S,4S)-2-(Aminomethyl)-5-chloro-6-fluoro-2-phenyl-2,3-dihydrobenzofuran-4-yl)-5-fluoro-6-(2-hydroxyethoxy)nicotinamide], the GI50 was 94 nM in experiment [1] (Homo sapiens, NCI-H2052, 72 h) and > 10000 nM in the experiment on MKN-45/Ubc-luc cells [5] (Homo sapiens). The IC50 in experiment [2] (Homo sapiens, NCI-H2052, 24 h) is 47 nM; with MKN-45/Ubc-luc cells [3] (setting [6]), > 10 µM; in experiment [4], 5 nM.

As to `CNC[C@@]1(c2ccccc2)Cc2c(cc(F)c(Cl)c2-c2c(C(N)=O)cnc(OCCOC)c2F)O1` (atropisomer, axis not shown) [Example 47, 4-((2S,4S)-5-Chloro-6-fluoro-2-((methylamino)methyl)-2-phenyl-2,3-dihydrobenzofuran-4-yl)-5-fluoro-6-(2-methoxyethoxy)nicotinamide], the GI50 in experiment [1] (Homo sapiens, NCI-H2052, 72 h) is 35 nM; in the experiment with MKN-45/Ubc-luc cells [5] (Homo sapiens) it was > 10000 nM. Also, the IC50 in experiment [2] (Homo sapiens, NCI-H2052, 24 h) was 50 nM; with MKN-45/Ubc-luc cells [3] (setting [6]) it was > 10 µM; in experiment [4], 4 nM.

Take `CNC[C@@]1(c2ccccc2)Cc2c(cc(F)c(Cl)c2-c2c(C(=O)NC)ccc(OCCO)c2F)O1` (atropisomer, axis not shown) [Example 51, 2-((2S,4S)-5-Chloro-6-fluoro-2-((methylamino)methyl)-2-phenyl-2,3-dihydrobenzofuran-4-yl)-3-fluoro-4-(2-hydroxyethoxy)-N-methylbenzamide]: the GI50 in experiment [1] (Homo sapiens, NCI-H2052, 72 h) was 71 nM; with MKN-45/Ubc-luc cells [5] (Homo sapiens), > 10000 nM. For the same compound, the IC50 in experiment [2] (Homo sapiens, NCI-H2052, 24 h) is 62 nM; with MKN-45/Ubc-luc cells [3] (setting [6]), > 10 µM; in experiment [4] it was 3 nM.

On to `CNC[C@@]1(c2ccccc2)Cc2c(cc(F)c(Cl)c2-c2c(C(=O)NC)ccc(OC[C@H](C)O)c2F)O1` (atropisomer, axis not shown) [Example 52, 2-((2S,4S)-5-chloro-6-fluoro-2-((methylamino)methyl)-2-phenyl-2,3-dihydrobenzofuran-4-yl)-3-fluoro-4-((S)-2-hydroxypropoxy)-N-methylbenzamide], for which the concentration for 50% growth inhibition (GI50) in experiment [1] (Homo sapiens, NCI-H2052, 72 h) is 174 nM; with MKN-45/Ubc-luc cells [5] (Homo sapiens), > 10000 nM. The IC50 was 109 nM in experiment [2] (Homo sapiens, NCI-H2052, 24 h); > 10 µM in the experiment with MKN-45/Ubc-luc cells [3] (setting [6]); 11 nM in experiment [4].

As for `NC(=O)c1ccc(OCCO)c(F)c1-c1c(Cl)c(F)cc2c1C[C@@](CN[C@H]1C[C@H](CO)C1)(c1ccccc1)O2` (atropisomer, axis not shown) [Example 64a, 2-((2S,4S)-5-chloro-6-fluoro-2-((((trans)-3-(hydroxymethyl)cyclobutyl)amino)methyl)-2-phenyl-2,3-dihydrobenzofuran-4-yl)-3-fluoro-4-(2-hydroxyethoxy)benzamide], the GI50 is 36 nM in experiment [1] (Homo sapiens, NCI-H2052, 72 h) and > 10000 nM in the experiment with MKN-45/Ubc-luc cells [5] (Homo sapiens). For the same compound, the IC50 in experiment [2] (Homo sapiens, NCI-H2052, 24 h) is 15 nM; in the experiment with MKN-45/Ubc-luc cells [3] (setting [6]), > 10 µM; in experiment [4], 2 nM.

As for `NC(=O)c1ccc(OCCO)c(F)c1-c1c(Cl)c(F)cc2c1C[C@@](CN[C@H]1C[C@@H](CO)C1)(c1ccccc1)O2` (atropisomer, axis not shown) [Example 64b, 2-((2S,4S)-5-chloro-6-fluoro-2-((((cis)-3-(hydroxymethyl)cyclobutyl)amino)methyl)-2-phenyl-2,3-dihydrobenzofuran-4-yl)-3-fluoro-4-(2-hydroxyethoxy)benzamide], the GI50 is 41 nM in experiment [1] (Homo sapiens, NCI-H2052, 72 h) and > 10000 nM in the experiment on MKN-45/Ubc-luc cells [5] (Homo sapiens). The IC50 in experiment [2] (Homo sapiens, NCI-H2052, 24 h) is 22 nM; in the experiment on MKN-45/Ubc-luc cells [3] (setting [6]), > 10 µM; in experiment [4] it was 3 nM.

With `C[C@]1(O)CC[C@H](NC[C@@]2(c3ccccc3)Cc3c(cc(F)c(Cl)c3-c3c(C(N)=O)ccc(-n4ccnc4)c3F)O2)CC1` (atropisomer, axis not shown) [Example 69a, 2-((2S,4S)-5-chloro-6-fluoro-2-((((trans)-4-hydroxy-4-methylcyclohexyl)amino)methyl)-2-phenyl-2,3-dihydrobenzofuran-4-yl)-3-fluoro-4-(1H-imidazol-1-yl)benzamide], the GI50 is 111 nM in experiment [1] (Homo sapiens, NCI-H2052, 72 h) and > 10000 nM in the experiment on MKN-45/Ubc-luc cells [5] (Homo sapiens). Further, the IC50 in experiment [2] (Homo sapiens, NCI-H2052, 24 h) is 80 nM; in the experiment with MKN-45/Ubc-luc cells [3] (setting [6]) it was > 10 µM; in experiment [4], 5 nM.

Take `C[C@]1(O)CC[C@@H](NC[C@@]2(c3ccccc3)Cc3c(cc(F)c(Cl)c3-c3c(C(N)=O)ccc(-n4ccnc4)c3F)O2)CC1` (atropisomer, axis not shown) [Example 69b, 2-((2S,4S)-5-chloro-6-fluoro-2-((((cis)-4-hydroxy-4-methylcyclohexyl)amino)methyl)-2-phenyl-2,3-dihydrobenzofuran-4-yl)-3-fluoro-4-(1H-imidazol-1-yl)benzamide]: the GI50 in experiment [1] (Homo sapiens, NCI-H2052, 72 h) was 171 nM; in the experiment with MKN-45/Ubc-luc cells [5] (Homo sapiens), 6700 nM. Also, the IC50 in experiment [2] (Homo sapiens, NCI-H2052, 24 h) was 114 nM; with MKN-45/Ubc-luc cells [3] (setting [6]), 7.8 µM; in experiment [4] it was 4 nM.

Regarding `NC(=O)c1ccc(OC(F)F)c(F)c1-c1c(Cl)c(F)cc2c1C[C@@](CN[C@H]1CC[C@H](O)CC1)(c1ccccc1)O2` (atropisomer, axis not shown) [Example 72, 2-((2S,4S)-5-chloro-6-fluoro-2-(((trans-4-hydroxycyclohexyl)amino)methyl)-2-phenyl-2,3-dihydrobenzofuran-4-yl)-4-(difluoromethoxy)-3-fluorobenzamide], the GI50 in experiment [1] (Homo sapiens, NCI-H2052, 72 h) is 72 nM; in the experiment on MKN-45/Ubc-luc cells [5] (Homo sapiens), > 10000 nM. The IC50 in experiment [2] (Homo sapiens, NCI-H2052, 24 h) amounted to 39 nM; in the experiment with MKN-45/Ubc-luc cells [3] (setting [6]), 9.8 µM; in experiment [4], 2 nM.

As to `C[C@@H](O)CNC[C@@]1(c2ccccc2)Cc2c(cc(F)c(Cl)c2-c2c(C(N)=O)ccc(OC(F)F)c2F)O1` (atropisomer, axis not shown) [Example 74, 2-((2S,4S)-5-chloro-6-fluoro-2-((((R)-2-hydroxypropyl)amino)methyl)-2-phenyl-2,3-dihydrobenzofuran-4-yl)-4-(difluoromethoxy)-3-fluorobenzamide], the 50% growth inhibitory concentration (GI50) in experiment [1] (Homo sapiens, NCI-H2052, 72 h) was 674 nM; in the experiment on MKN-45/Ubc-luc cells [5] (Homo sapiens), > 10000 nM. Besides, the IC50 is 419 nM in experiment [2] (Homo sapiens, NCI-H2052, 24 h); > 10 µM in the experiment on MKN-45/Ubc-luc cells [3] (setting [6]); 33 nM in experiment [4].

For `NC(=O)c1ccc(OC(F)F)c(F)c1-c1c(Cl)c(F)cc2c1C[C@@](CN[C@H]1CC[C@@H](O)[C@H](F)C1)(c1ccccc1)O2` (atropisomer, axis not shown) [Example 81a, 2-((2S,4S)-5-chloro-6-fluoro-2-((((1S,3R,4R)-3-fluoro-4-hydroxycyclohexyl)amino)methyl)-2-phenyl-2,3-dihydrobenzofuran-4-yl)-4-(difluoromethoxy)-3-fluorobenzamide], the GI50 is 467 nM in experiment [1] (Homo sapiens, NCI-H2052, 72 h) and > 10000 nM in the experiment on MKN-45/Ubc-luc cells [5] (Homo sapiens). For the same compound, the IC50 is 231 nM in experiment [2] (Homo sapiens, NCI-H2052, 24 h); > 10 µM in the experiment on MKN-45/Ubc-luc cells [3] (setting [6]); 33 nM in experiment [4].

In the case of `NC(=O)c1ccc(OC(F)F)c(F)c1-c1c(Cl)c(F)cc2c1C[C@@](CN[C@H]1CC[C@@H](O)[C@H](F)C1)(c1ccccc1)O2` (atropisomer, axis not shown) [Example 81b, 2-((2S,4S)-5-chloro-6-fluoro-2-((((1R,3S,4S)-3-fluoro-4-hydroxycyclohexyl)amino)methyl)-2-phenyl-2,3-dihydrobenzofuran-4-yl)-4-(difluoromethoxy)-3-fluorobenzamide], the GI50 in experiment [1] was 571 nM; with MKN-45/Ubc-luc cells [5], > 10000 nM. In addition, the IC50 in experiment [2] was 316 nM; in the experiment on MKN-45/Ubc-luc cells [3] (read-out: Reporter gene assay MKN-45 IC50, MKN-45/Ubc-luc cells (YAP deleted, specificity control), 24 hours incubation) it was > 10 µM; in experiment [4], 32 nM.
